Data taken from patent US12655173B2, “Hybrid amide derivatives of amphotericin B” (priority 2020, dated 2026).
Converted amounts (≈) assume the structure as drawn. Read-outs that look alike come from different tables or passages of the source.

What was measured:
[1] = system: Cunninghamella sp.; assay: MIC against moulds; format: cell-based; conditions: 6 isolates, AmB (AmBisome)
[2] = Mouse single IV injection: mortality
[3] = target: P450 2C19 (Homo sapiens, UniProt P33261); assay: P450 inhibition 2C19; format: in vitro ADME
Chain of P450 2C19 (P33261 whole entry): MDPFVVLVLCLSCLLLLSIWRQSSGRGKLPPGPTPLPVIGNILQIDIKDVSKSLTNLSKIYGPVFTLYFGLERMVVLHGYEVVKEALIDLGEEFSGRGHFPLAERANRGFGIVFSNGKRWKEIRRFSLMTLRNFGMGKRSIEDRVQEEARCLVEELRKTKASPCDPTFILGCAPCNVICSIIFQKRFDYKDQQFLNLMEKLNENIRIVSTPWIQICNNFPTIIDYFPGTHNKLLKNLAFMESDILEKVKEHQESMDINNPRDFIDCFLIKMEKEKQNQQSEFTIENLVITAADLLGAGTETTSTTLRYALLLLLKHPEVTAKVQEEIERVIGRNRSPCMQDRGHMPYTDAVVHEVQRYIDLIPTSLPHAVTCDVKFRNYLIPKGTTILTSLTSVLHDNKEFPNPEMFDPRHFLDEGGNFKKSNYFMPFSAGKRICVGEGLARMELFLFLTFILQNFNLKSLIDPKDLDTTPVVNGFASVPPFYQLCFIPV

[4] = system: Purpureocillium lilacinum; assay: MIC against rare moulds resistant to AmB; format: cell-based; conditions: 6 isolates, Table 4
[5] = target: P450 1A2 (Homo sapiens, UniProt P05177); assay: P450 inhibition 1A2; format: in vitro ADME
Chain of P450 1A2 (P05177 whole entry): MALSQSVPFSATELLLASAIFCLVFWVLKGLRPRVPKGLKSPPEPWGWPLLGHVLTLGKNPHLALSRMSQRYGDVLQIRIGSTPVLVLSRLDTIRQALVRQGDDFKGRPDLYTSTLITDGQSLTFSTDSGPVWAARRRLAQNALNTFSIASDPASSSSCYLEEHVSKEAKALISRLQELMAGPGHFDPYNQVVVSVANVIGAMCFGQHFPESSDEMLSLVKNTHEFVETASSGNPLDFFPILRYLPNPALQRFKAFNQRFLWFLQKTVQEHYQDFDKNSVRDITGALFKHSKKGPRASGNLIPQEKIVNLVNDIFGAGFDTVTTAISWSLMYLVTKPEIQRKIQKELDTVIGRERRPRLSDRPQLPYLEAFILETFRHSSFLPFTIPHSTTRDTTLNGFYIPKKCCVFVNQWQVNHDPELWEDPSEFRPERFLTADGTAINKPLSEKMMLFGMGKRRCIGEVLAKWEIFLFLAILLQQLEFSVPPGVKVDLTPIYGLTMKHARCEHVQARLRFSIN

[6] = target: P450 2C9 (Homo sapiens, UniProt P11712); assay: P450 inhibition 2C9; format: in vitro ADME
Chain of P450 2C9 (P11712 whole entry): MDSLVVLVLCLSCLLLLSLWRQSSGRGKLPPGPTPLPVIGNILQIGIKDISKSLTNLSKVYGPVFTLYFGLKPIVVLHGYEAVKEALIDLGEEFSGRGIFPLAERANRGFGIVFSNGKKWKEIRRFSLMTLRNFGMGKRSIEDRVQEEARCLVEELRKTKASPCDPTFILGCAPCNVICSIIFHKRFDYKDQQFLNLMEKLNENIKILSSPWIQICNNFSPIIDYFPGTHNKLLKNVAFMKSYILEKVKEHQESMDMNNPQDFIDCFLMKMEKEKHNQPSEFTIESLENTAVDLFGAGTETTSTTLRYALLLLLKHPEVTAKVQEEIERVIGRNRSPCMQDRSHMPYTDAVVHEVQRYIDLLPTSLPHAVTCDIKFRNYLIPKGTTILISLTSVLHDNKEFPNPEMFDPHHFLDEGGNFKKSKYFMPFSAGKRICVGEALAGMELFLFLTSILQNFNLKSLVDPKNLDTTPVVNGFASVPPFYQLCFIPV

[7] = system: erythrocytes (whole human blood); assay: MHC hemolysis assay; format: cell-based
Protocol: MHC (FIG. 1B and FIG. 10): The protocol for the hemolysis assay was adapted from the report of Paquet and coworkers (Chem. Eur. J. 2008, 14, 2465-2481). Whole human blood (sodium heparin) was purchased from Bioreclamation LLC (Westbury, NY) and stored at 4° C. and used within two days of receipt. To a 2.0 mL appendorf tube, 1 mL of whole human blood was added and centrifuged at 10,000 g for 2 minutes. The supernatant was removed and the erythrocyte pellet was washed with 1 mL of sterile saline and centrifuged at 10,000 g for 2 minutes. The saline wash was repeated for a total of three washes. The erythrocyte pellet was suspended in 1 mL of RBC buffer (10 mM NaH2PO4, 150 mM NaCl, 1 mM MgCl2, pH 7.4) to form the erythrocyte stock suspension.
Compounds were prepared as >15 mM stock solutions in DMSO and serially diluted to the following concentrations with DMSO: 7689, 5126, 2563, 2050, 1538, 1025, 769, 513, 384, 256, 205, 154, 103, 77, 51, 26 μM. To a 0.2 mL PCR tube, 24 μL of RBC buffer and 1 μL of compound stock solution were added, which gave final concentrations of 500, 300, 200, 100, 80, 60, 40, 30, 20, 15, 10, 8, 6, 4, 3, 2, 1 μM. Positive and negative controls were prepared by adding 1 μL of DMSO to MilliQ water or RBC buffer, respectively to 0.2 mL PCR tube. To each PCR tube, 0.63 μL. of the erythrocyte stock suspension was added and mixed by inversion. The samples were incubated at 37° C. for 2 hours. The samples were mixed by inversion and centrifuged at 10,000 g for 2 minutes. 15 μL of the supernatant from each sample was added to a 384-well place. Absorbances were read at 540 nm using a Biotek H1 Synergy Hybrid Reader (Winooski, VT), Experiments were performed in triplicate and the reported MHC represents an average of three experiments.

[8] = system: Coccidioides posadasii; assay: microbe, parasite or virus in culture; format: cell-based; conditions: for MIC Coccidioides posadasii: 6 isolates, AmB (AmBisome)
[9] = system: Rhodotorula sp.; assay: MIC against yeasts; format: cell-based; conditions: 6 isolates, Table 3
[10] = system: A. flavus; assay: MIC against moulds; format: cell-based
[11] = system: A. terreus; assay: MIC against moulds; format: cell-based
[12] = system: Lomentospora prolificans; assay: MIC against rare moulds resistant to AmB; format: cell-based; conditions: 6 isolates, Table 4
[13] = system: Coccidioides immitis; assay: microbe, parasite or virus in culture; format: cell-based; conditions: for MIC Coccidioides immitis: 6 isolates, AmB (AmBisome)
[14] = system: Mucor janssenii; assay: MIC against moulds; format: cell-based; conditions: 6 isolates, AmB (AmBisome)
[15] = system: Candida krusei; assay: MIC against yeasts; format: cell-based
[16] = system: Fusarium solani; assay: MIC against moulds; format: cell-based
[17] = system: Candida parapsilosis; assay: MIC against yeasts; format: cell-based
[18] = target: P450 3A4 (Homo sapiens, UniProt P08684); assay: P450 inhibition 3A4; format: in vitro ADME
Chain of P450 3A4 (P08684 whole entry): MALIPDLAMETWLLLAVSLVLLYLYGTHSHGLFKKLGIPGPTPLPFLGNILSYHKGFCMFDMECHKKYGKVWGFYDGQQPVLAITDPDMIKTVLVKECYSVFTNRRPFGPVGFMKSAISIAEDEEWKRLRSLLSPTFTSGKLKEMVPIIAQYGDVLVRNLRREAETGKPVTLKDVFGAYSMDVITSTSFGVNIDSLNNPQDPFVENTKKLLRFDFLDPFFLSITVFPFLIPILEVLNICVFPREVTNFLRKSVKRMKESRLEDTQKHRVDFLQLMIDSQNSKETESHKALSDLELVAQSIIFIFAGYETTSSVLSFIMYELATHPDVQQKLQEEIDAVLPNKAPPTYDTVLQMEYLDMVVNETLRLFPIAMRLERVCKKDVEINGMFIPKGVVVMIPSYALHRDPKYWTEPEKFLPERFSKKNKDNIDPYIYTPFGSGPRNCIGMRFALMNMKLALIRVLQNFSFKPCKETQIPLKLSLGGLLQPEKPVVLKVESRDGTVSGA

[19] = Solubility in D5W; conditions: in D5W
[20] = target: P450 2D6 (Homo sapiens, UniProt P10635); assay: P450 inhibition 2D6; format: in vitro ADME
Chain of P450 2D6 (P10635 whole entry): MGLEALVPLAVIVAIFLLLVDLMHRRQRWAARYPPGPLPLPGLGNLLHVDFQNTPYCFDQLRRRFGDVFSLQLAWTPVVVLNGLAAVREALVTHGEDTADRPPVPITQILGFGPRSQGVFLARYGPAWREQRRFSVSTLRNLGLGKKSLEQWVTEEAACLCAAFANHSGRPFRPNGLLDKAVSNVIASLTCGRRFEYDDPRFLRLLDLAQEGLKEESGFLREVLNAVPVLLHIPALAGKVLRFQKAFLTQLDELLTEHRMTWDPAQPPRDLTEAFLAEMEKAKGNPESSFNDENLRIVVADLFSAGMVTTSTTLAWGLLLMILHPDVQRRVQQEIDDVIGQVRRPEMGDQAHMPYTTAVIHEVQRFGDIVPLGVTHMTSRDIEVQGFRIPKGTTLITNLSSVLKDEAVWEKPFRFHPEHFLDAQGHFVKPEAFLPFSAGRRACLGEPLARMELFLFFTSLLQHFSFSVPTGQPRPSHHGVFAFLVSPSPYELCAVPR

[21] = system: Candida auris; assay: MIC against yeasts; format: cell-based
[22] = system: Sporothrix schenckii; assay: MIC against rare moulds resistant to AmB; format: cell-based; conditions: 6 isolates, Table 4
[23] = system: C. albicans SN250; assay: In vivo efficacy in murine candidiasis model (C. albicans SN250), female CD-1 mice, kidney fungal burden
[24] = system: A. fumigatus; assay: MIC against moulds; format: cell-based
[25] = system: A. tubingensis; assay: MIC against moulds; format: cell-based; conditions: for MIC A. tubingensis: 6 isolates, AmB (AmBisome)
[26] = system: Microsporum canis; assay: MIC against yeasts (Table 3A); format: cell-based; conditions: 2 isolates
[27] = system: Candida tropicalis; assay: MIC against yeasts; format: cell-based; conditions: 10 isolates, Table 3A
[28] = system: A. funigatus (CEA10 strain); assay: Efficacy study against pulmonary aspergillosis in neutropenic mice: survival; format: in vivo; conditions: 15 mg/kg QD IP for 7 days, monitored until day 14
Excerpt: Efficacy study (FIG. 22): Healthy mice were divided as 10 mice/group. […] Animals were infected with A. funigatus (CEA10 strain) (intranasal) on day 0. […] Survivability of the animals were monitored during the course of the study.

[29] = system: Candida glabrata; assay: MIC against yeasts; format: cell-based; conditions: Nakaseomyces glabratus; 5 isolates; Table 3A
[30] = Tolerance study, IP dosing in immunocompromised mice, no infection; conditions: 25 mg/kg QD IP 7 days, observed 14 days
[31] = 2 isolates, Table 3, read-out: MIC Candida krusei

CC1C=CC=CC=CC=CC=CC=CC=CC(OC2OC(C)C(O)C(N)C2O)CC2OC(O)(CC(O)CC(O)C(O)CCC(O)CC(O)CC(=O)OC(C)C(C)C1O)CC(O)C2C(=O)NC(CO)CO (stereo not shown) [Compound 1]
MIC [1]: 4 µM (≈ 3.99 µg/mL)
Mouse single IV injection: mortality (40 mpk) [2]: 0/4
P450 Inhibition (%) 2C19 [3]: 0.0%
MIC [4]: >16 µM
P450 Inhibition (%) 1A2 [5]: 8.7%
P450 Inhibition (%) 2C9 [6]: 26.9%
MHC [7]: >100
MIC Coccidioides posadasii [8]: 0.25 µM (≈ 0.249 µg/mL)
MIC [9]: 2.8 µM (≈ 2.79 µg/mL)
MIC ([10]; 6 isolates, AmB (AmBisome)): 1.67 µM (≈ 1.67 µg/mL)
MIC ([11]; 6 isolates, AmB (AmBisome)): 2 µM (≈ 1.99 µg/mL)
MIC [12]: >16 µM
MIC Coccidioides immitis [13]: 0.27 µM (≈ 0.269 µg/mL)
MIC [14]: 0.5 µM (≈ 0.499 µg/mL)
MIC [15, 31]: 2 µM (≈ 1.99 µg/mL)
MIC ([16]; 6 isolates, AmB (AmBisome)): 5.67 µM (≈ 5.65 µg/mL)
MIC ([17]; 8 isolates, Table 3): 1.8 µM (≈ 1.79 µg/mL)
P450 Inhibition (%) 3A4 [18]: 14.5%
Solubility [19]: >7220 µM
P450 Inhibition (%) 2D6 [20]: 0.0%
MIC ([21]; 10 isolates, Table 3): 2.6 µM (≈ 2.59 µg/mL)
MIC [22]: 6 µM (≈ 5.98 µg/mL)
Mouse candidiasis model 5 mpk; Log (CFU/mL) [23]: 4.8 Log (CFU/mL)
MIC ([24]; 5 isolates, AmB (AmBisome)): 1.33 µM (≈ 1.33 µg/mL)
MIC A. tubingensis [25]: 0.83 µM (≈ 0.828 µg/mL)

C[C@@H]1[C@H](O)[C@@H](C)/C=C/C=C/C=C/C=C/C=C/C=C/C=C/[C@H](OC2O[C@H](C)[C@@H](O)[C@H](N)[C@@H]2O)C[C@@H]2O[C@](O)(C[C@@H](O)C[C@@H](O)[C@H](O)CC[C@@H](O)C[C@@H](O)CC(=O)O[C@H]1C)C[C@H](O)[C@H]2C(=O)O (stereo partly shown) [AmB, Amphotericin B]
MIC ([1]; Cunninghamella): 2 µM (≈ 1.85 µg/mL)
Mouse single IV injection: mortality (40 mpk) [2]: 0/3
MIC ([4]; Purpureocillium lilacinum): > 16 µM
MHC [7]: 8.4
MIC [26]: 0.56 µM (≈ 0.517 µg/mL)
MIC ([8]; Coccidioides posadasii, read-out: MIC Coccidioides posadasii): 0.06 µM (≈ 0.0554 µg/mL)
MIC ([9]; Rhodotorula): 1 µM (≈ 0.924 µg/mL)
MIC [27]: 0.8 µM (≈ 0.739 µg/mL)
MIC ([10]; Aspergillus flavus, 3 isolates, Table 2A): 4 µM (≈ 3.7 µg/mL)
MIC ([10]; Aspergillus flavus, 6 isolates, AmB (AmBisome)): 1.16 µM (≈ 1.07 µg/mL)
Survival [28]: 80%
MIC ([11]; Aspergillus terreus, 5 isolates, Table 2A): 7 µM (≈ 6.47 µg/mL)
MIC ([11]; Aspergillus terreus, 6 isolates, AmB (AmBisome)): 3 µM (≈ 2.77 µg/mL)
MIC ([12]; Lomentospora prolificans): > 16 µM
MIC ([13]; Coccidioides immitis, read-out: MIC Coccidioides immitis): 0.125 µM (≈ 0.116 µg/mL)
MIC ([14]; Mucor janssenii): 0.06 µM (≈ 0.0554 µg/mL)
MIC ([15]; Pichia kudriavzevii, read-out: MIC Candida krasei): 2.5 µM (≈ 2.31 µg/mL)
MIC ([15]; Pichia kudriavzevii, 2 isolates, Table 3, read-out: MIC Candida krusei): 1 µM (≈ 0.924 µg/mL)
MIC ([16]; Fusarium solani, 2 isolates, Table 3A): 3 µM (≈ 2.77 µg/mL)
MIC ([16]; Fusarium solani, 6 isolates, AmB (AmBisome)): 1.33 µM (≈ 1.23 µg/mL)
MIC ([17]; Lodderomyces parapsilosis, 6 isolates, Table 3A): 0.5 µM (≈ 0.462 µg/mL)
MIC ([17]; Lodderomyces parapsilosis, 8 isolates, Table 3): 1.1 µM (≈ 1.02 µg/mL)
MIC ([21]; Candidozyma auris, 10 isolates, Table 3): 1.2 µM (≈ 1.11 µg/mL)
MIC ([21]; Candidozyma auris, 15 isolates, Table 3A): 2.9 µM (≈ 2.68 µg/mL)
MIC [29]: 1.4 µM (≈ 1.29 µg/mL)
MIC ([22]; Sporothrix schenckii): 4 µM (≈ 3.7 µg/mL)
Survival [30]: 66%
Mouse candidiasis model 5 mpk; Log (CFU/mL) [23]: 5.2 Log (CFU/mL)
MIC ([24]; Aspergillus fumigatus, 5 isolates, AmB (AmBisome)): 0.71 µM (≈ 0.656 µg/mL)
MIC ([24]; Aspergillus fumigatus, 16 isolates, Table 2A): 2.1 µM (≈ 1.94 µg/mL)
MIC ([25]; Aspergillus tubingensis, read-out: MIC A. tubingensis): 0.125 µM (≈ 0.116 µg/mL)

CC1C=CC=CC=CC=CC=CC=CC=CC(OC2OC(C)C(O)C(N)C2O)CC2OC(O)(CC(O)CC(O)C(O)CCC(O)CC(O)CC(=O)OC(C)C(C)C1O)CC(O)C2C(=O)NC(CO)(CO)CO (stereo not shown) [Compound 2]
MIC [1]: 5.33 µM (≈ 5.48 µg/mL)
P450 Inhibition (%) 2C19 [3]: 1.1%
MIC [4]: >16 µM
P450 Inhibition (%) 1A2 [5]: 0.0%
P450 Inhibition (%) 2C9 [6]: 0.0%
MHC [7]: >60
MIC Coccidioides posadasii [8]: 0.5 µM (≈ 0.514 µg/mL)
MIC [9]: 3.7 µM (≈ 3.8 µg/mL)
MIC ([10]; 6 isolates, AmB (AmBisome)): 1.67 µM (≈ 1.72 µg/mL)
MIC ([11]; 6 isolates, AmB (AmBisome)): 2.3 µM (≈ 2.36 µg/mL)
MIC [12]: >16 µM
MIC Coccidioides immitis [13]: 0.27 µM (≈ 0.277 µg/mL)
MIC [14]: 0.92 µM (≈ 0.945 µg/mL)
MIC [15, 31]: 3 µM (≈ 3.08 µg/mL)
MIC ([16]; 6 isolates, AmB (AmBisome)): 14 µM (≈ 14.4 µg/mL)
MIC ([17]; 8 isolates, Table 3): 1.6 µM (≈ 1.64 µg/mL)
P450 Inhibition (%) 3A4 [18]: 14.5%
Solubility [19]: 366 µM (≈ 376 µg/mL)
P450 Inhibition (%) 2D6 [20]: 0.0%
MIC ([21]; 10 isolates, Table 3): 2.6 µM (≈ 2.67 µg/mL)
MIC [22]: >5.2 µM
MIC ([24]; 5 isolates, AmB (AmBisome)): 2.33 µM (≈ 2.39 µg/mL)
MIC A. tubingensis [25]: 0.92 µM (≈ 0.945 µg/mL)
